Assays:
[1] = molecular target: T1, estrogen receptor α (Homo sapiens, UniProt P03372); settings: cited from earlier work
T1 sequence (P03372 1-595): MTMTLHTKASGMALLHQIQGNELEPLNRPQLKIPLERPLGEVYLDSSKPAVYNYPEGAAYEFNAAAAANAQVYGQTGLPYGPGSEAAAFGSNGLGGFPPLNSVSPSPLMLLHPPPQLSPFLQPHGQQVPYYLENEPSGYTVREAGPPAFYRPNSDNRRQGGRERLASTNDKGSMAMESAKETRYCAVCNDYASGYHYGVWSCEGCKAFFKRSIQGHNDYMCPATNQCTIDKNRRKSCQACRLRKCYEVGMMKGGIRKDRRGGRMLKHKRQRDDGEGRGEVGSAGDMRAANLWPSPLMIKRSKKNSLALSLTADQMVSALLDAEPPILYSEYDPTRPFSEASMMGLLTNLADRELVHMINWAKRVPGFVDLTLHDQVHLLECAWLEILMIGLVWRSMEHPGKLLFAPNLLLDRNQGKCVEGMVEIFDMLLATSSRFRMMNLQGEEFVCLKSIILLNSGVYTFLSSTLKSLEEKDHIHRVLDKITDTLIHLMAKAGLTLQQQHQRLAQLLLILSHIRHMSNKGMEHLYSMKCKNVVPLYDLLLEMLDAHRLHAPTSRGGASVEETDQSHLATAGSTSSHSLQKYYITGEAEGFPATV

[2] = tested on: estrogen receptor (ER); settings: cited from earlier work
[3] = tested on: spontaneously hypertensive rats (SHRs); assay: Blood pressure and heart rate in spontaneously hypertensive rats, tail-cuff method; type: in vivo, rat; settings: 100 mg once a day for seven days; for change in heart rate: FIG. 6 (TAS-108), FIG. 7 (raloxifene)
Method: TAS-108 (100 mg) was administered to nine-week-old spontaneously hypertensive rats (SHRs) once a day for consecutive seven days. Before final administration of the test drug, and 30 minutes, one hour, two hours, and four hours after the final administration, blood pressure was measured in a state where heart rate is constant by means of an […] automatic rat/mouse blood pressure measuring apparatus (BP-97A, product of Softron) according to the tail-cuff method (J. Lab. Clin. Med. 1971; 78: 957-962). For comparison, a solvent (0.5% HPMC) or raloxifene, serving as a control drug, was administered in a dose of 100 mg once a day for consecutive seven days.
Percent increase/decrease in blood pressure after final administration of the test drug was obtained on the basis of the blood pressure as measured before final administration of the drug, and the thus-obtained values were compared with one another.

[4] = tested on: postmenopausal breast cancer patients; assay: Blood pressure in postmenopausal breast cancer patients given oral TAS-108; type: in vivo, human
Method: TAS-108 (40 mg, 80 mg, or 120 mg) was orally administered to postmenopausal breast cancer patients (age: 50 to 78) once a day after breakfast for up to eight weeks. Blood pressure was measured in a sitting position before administration on the day of initiation of administration, and two weeks, four weeks, and eight weeks after initiation of administration.

[5] = tested on: postmenopausal hypertensive patients; settings: 142±13 mmHg before; cited from earlier work
[6] = SHR, relative to pressure before final administration, FIG. 5
[7] = SHR, during the course of measurement, FIG. 7

Row | Structure (SMILES) | agonistic effect on estrogen receptor α [1] | antagonistic effect on estrogen receptor α [1] | affinity to estrogen receptor (ER) [2] | change in heart rate ([3]; SHR) | time of maximum percent decrease in blood pressure ([3]; SHR, after final administration, FIG. 5) | reduction of diastolic blood pressure [3, 6] | reduction of mean blood pressure [3, 6] | blood pressure ([3]; all SHRs, one to two hours after final administration) | systolic or diastolic blood pressure ([4]; four hypertensive patients (systolic 140 mmHg or higher or diastolic 90 mmHg or higher), 40, 80 or 120 mg orally once a day, two to four weeks after initiation, FIGS. 1 to 3) | change in blood pressure ([4]; remaining 11 breast cancer patients with normal blood pressure, during the course of administration, FIG. 4) | reduction of systolic blood pressure ([4]; typical hypertensive patient (FIG. 2), four weeks after initiation of administration) | systolic blood pressure after administration ([4]; typical hypertensive patient (FIG. 2), four weeks after initiation, 180 mmHg before administration) | change in diastolic blood pressure [3, 7] | change in mean blood pressure [3, 7] | change in systolic blood pressure [3, 7] | systolic blood pressure after administration [5]
1 | CCN(CC)Cc1ccc(OCC[C@H]2CCC3C4C(CC[C@@]32C)c2ccc(O)cc2C[C@H]4C)c(OC)c1 (stereo partly drawn) [TAS-108, (7α)-21-[4-[(Diethylamino)methyl]-2-methoxyphenoxy]-7-methyl-19-norpregna-1,3,5(10)-trien-3-ol] | virtually no agonistic effect | potent antagonistic effect | strong affinity | No considerable change in heart rate | two hours after administration | 46.9% | 28.6% | blood pressure was reduced | reduced to fall within a normal pressure range | no considerable change in blood pressure | about 40 mmHg | 138 mmHg | – | – | – | –
2 | O=C(c1ccc(OCCN2CCCCC2)cc1)c1c(-c2ccc(O)cc2)sc2cc(O)ccc12 [raloxifene, reference compound] | – | – | – | no considerable change | – | – | – | – | – | – | – | – | no considerable change | no considerable change | no considerable change | 139±10 mmHg
